According to a melting point compilation (Tetko et al.; mined from patent text by program, amines drawn as free bases though some values may be those of a salt):

Compared with `CC(=O)SCC(C(=O)N1CC2(C[C@H]1C(=O)O)C(=O)CCC2=O)C(F)(F)F` (some centres not stated), `CN(C)c1ccc(-c2c(N3CCCC3C(=O)OC(C)(C)C)c(=O)c2=O)cc1` (configuration not stated) is lower in melting point: 153 to 155 °C for the first, 115 °C for the second.

`COc1ccc(Nc2nc(NCCN(C)C)nc(NC3CCCCCC3)n2)cc1F` and `CCOCc1nc2c(N)nc3ccccc3c2n1NCCCNC(=O)C1CCCC1` cannot be ordered by melting point: 73 to 76 °C for the first, 75 to 77 °C for the second.

First: O=C(N[C@H]1CCCNC1=O)c1c(F)cccc1F
Second: COc1ccc(C(=O)c2c(F)cccc2F)c(Cl)c1Cl
The melting point of the first is higher: 190 to 194 °C for the first, 94 to 96 °C for the second.

Compared with `O=C1NC(=O)C(=Cc2ccc(OCCc3ccccc3)cc2)S1`, `CCO/C(=C\c1ccc(OCCc2ccc(OCC)cc2)c(OC)c1)C(=O)O` is lower in melting point: 185 to 187 °C for the first, 121 °C for the second.

First: CN(Cc1ccccc1)CC1Nc2ccccc2Cn2cccc21 (configuration not stated)
Second: O=C(O)C=C(c1ccccc1)c1ccccc1
The melting point of the first is lower: 147 to 149 °C for the first, 162 to 164 °C for the second.

First: CCOc1ccc(C=[N+]([O-])C2CCCC2)cc1
Second: CCOC(=O)c1ccc(/C=C(\C)c2ccc3c(c2)OCCCC3)cc1
The melting point of the first is higher: 95.1 °C for the first, 71 to 72 °C for the second.

Compared with `COC(=O)C1=C(CO)NC(C)=C(C(=O)OC(C)C)C1c1ccccc1C#N` (configuration not stated), `CCOC(=O)C1=C(C)NC(=S)N(C(=O)OCC)C1c1cccc(Cl)c1` (configuration not stated) is lower in melting point: 134 to 137 °C for the first, 95 to 97 °C for the second.

Compared with `COc1c(Cl)ccc(-c2nc(N)c(Cl)c(C(=O)O)n2)c1F`, `CCc1nc2c(N)nc3ccccc3c2n1CC1(C(N)=O)CCC1` is higher in melting point: 172 to 173 °C for the first, 227 to 230 °C for the second.

First: Cc1cccc(C2=C(c3ccc(S(C)(=O)=O)cc3)CN(C3CC3)C2=O)c1
Second: CN1C(=O)N(CCC(NS(=O)(=O)c2ccc(-c3ccc(Cl)cc3)cc2)C(=O)O)C(=O)C1(C)C (configuration not stated)
The melting point of the first is higher: 136 to 137 °C for the first, 43 °C for the second.

Compared with `O=c1[nH]c(C=Cc2ccc([N+](=O)[O-])o2)nc2ccccc12`, `Cc1c2c(nn1C(C)C)c(N)nc1ccccc12` is lower in melting point: 327 °C for the first, 221 to 222 °C for the second.

Compared with `CC(C(=O)NCc1ccc(C(C)(C)C)cc1)c1ccc(NS(C)(=O)=O)c(C(=O)NCc2ccccc2)c1` (configuration not stated), `O=C(CNC(=O)c1ccc([N+](=O)[O-])c(I(=O)=O)c1)OCc1ccccc1` is higher in melting point: 79 to 81 °C for the first, 196 to 198 °C for the second.

First: COc1ccc(-c2cc(-c3c(-c4cccc(C)n4)nc4ccccn34)ccn2)cc1
Second: N#Cc1cc(-c2ccoc2)c2ccc(COc3cc(F)cc(-c4ccc(F)cc4)c3)cc2n1
The melting point of the first is lower: 174 °C for the first, 177 to 180 °C for the second.

First: O=C(Oc1ccc(OC(=O)c2cc(O)c(O)c(O)c2)c(-c2ccccc2)c1)c1cc(O)c(O)c(O)c1
Second: Cc1[nH]c2ccc(CCO)cc2c1C(=O)OCc1ccccc1
The melting point of the first is lower: 114 to 116 °C for the first, 170 to 172 °C for the second.

First: COc1cc(S(C)(=O)=O)ccc1-c1nc2cnccc2[nH]1
Second: Cc1nc2ccc(NS(=O)(=O)c3cccc(Cl)c3C)cc2o1
The melting point of the first is higher: 234 to 235 °C for the first, 127 to 128 °C for the second.

Compared with `Oc1ccc(Cl)cc1C(c1cc(Cl)ccc1O)C(F)(F)F`, `Cn1cc(C(=O)NCc2ccc(Cl)cc2)c(=O)c2cc(CCl)cc(I)c21` is higher in melting point: 144 °C for the first, 237 to 239 °C for the second.

Compared with `CC(C)(C)C1CCc2nc(N)nc(N)c2C1` (configuration not stated), `CCCc1nc2c(N)nc3ccc(-c4cccc(NS(C)(=O)=O)c4)cc3c2s1` is lower in melting point: greater than 250 °C for the first, 244 to 246 °C for the second.

Compared with `CNc1nc(-c2cccc(C#Cc3cccnc3)c2)c2cc(OC)c(OC)cc2n1`, `COc1ccc(CCNCC(O)c2ccccc2C)cc1OC` (configuration not stated) is lower in melting point: 103 to 105 °C for the first, 91 to 94 °C for the second.

Compared with `CNC(=O)NC(=O)N1CCN(c2ccccc2)CC1`, `O=C(N1CCCC1)C(CCN1CCC(O)(c2ccccc2)CC1)(c1ccccc1)c1ccccc1` is lower in melting point: 198 to 200 °C for the first, 188 °C for the second.

First: O=C(NCCO)c1cncc(-c2cccc3cc(Cc4cc(F)cc(Cl)c4)sc23)c1
Second: CC(=O)Nc1cccc(-c2ccc(OC[C@H](O)CCc3cccnc3)cc2)c1
The melting point of the first is higher: 126 to 127 °C for the first, 110 to 113 °C for the second.

Compared with `CCCOc1cc(OCCCc2cn(-c3ccc(C(F)(F)F)cn3)nc2OCC)ccc1CCC(=O)O`, `FC(F)(F)C(F)(F)c1nc(-c2ccc(OCCCn3ccnc3)cc2)no1` is lower in melting point: 126 to 127 °C for the first, 60.5 to 61.5 °C for the second.

First: O=Cc1ccc2c(c1)C1(c3ccccc3-2)c2ccccc2-c2ccc(C=O)cc21
Second: Cc1noc2cc3c(cc12)C1(CO3)C(=O)N(Cc2ccccn2)c2ccccc21 (configuration not stated)
The melting point of the first is higher: greater than 300 °C for the first, 142 to 143 °C for the second.

First: Nc1cc(F)ccc1C(=O)Nc1ccccc1
Second: O=C(Nc1nnn(C(F)F)n1)C(c1ccccc1)c1ccccc1
The melting point of the first is lower: 120 to 122 °C for the first, 143 to 145 °C for the second.

Compared with `CCCCCCNC(=O)c1ccccc1I`, `CCN(CC)CCNC(=O)c1cc(Cl)c(N)cc1OCC(=O)c1ccccc1` is higher in melting point: 104 to 105 °C for the first, 153 to 154 °C for the second.

First: Cc1ccc(-c2[nH]nc3c2Cc2ccccc2-3)cc1
Second: Cc1nc2c(OCc3ccccc3)nccn2c1N
The melting point of the first is higher: 250 to 252 °C for the first, 126 to 133 °C for the second.

Compared with `Brc1ccc(OCCc2c[nH]cn2)cc1`, `CCCCOc1ccc(CCCCCCCCC(=O)NO)cc1` is lower in melting point: 162 to 165 °C for the first, 99 to 101 °C for the second.

First: C=CCOCC(C)OC(=O)COc1ccc(Cl)c2cccnc12 (configuration not stated)
Second: O=c1c(Cl)c(OCc2ccc(F)cc2F)ccn1Cc1cccc2c1CCNC2
The melting point of the first is lower: 59 °C for the first, 180 to 184 °C for the second.

Compared with `CCC1(CC)Oc2ccc(C#N)cc2[C@@H](OC2=CC(=O)CC2)[C@@H]1O` (relative stereo), `COc1ccc2c(c1)C(=O)OC(=O)C2` is lower in melting point: 166 to 170 °C for the first, 138 to 140 °C for the second.

First: O=C1c2ccc(OC3CCCCC3)cc2CCC1CN1CCC(O)(c2ccccc2)CC1 (configuration not stated)
Second: COc1ccc2[nH]cc(CCN3CCC(Oc4ccc(F)cc4)CC3)c2c1
The melting point of the first is higher: 175 to 177 °C for the first, 132 to 134 °C for the second.

First: CC(C)(C)NC(=O)[C@@H]1CC(Cl)CN1C(=O)C(O)[C@H](Cc1ccccc1)NC(=O)[C@H](CC(N)=O)NC(=O)COc1ccc(NC(=O)OCc2ccccc2)cc1 (some centres not stated)
Second: CN1C[C@H](CN2CCN(C(c3ccccc3)c3ccccc3)CC2)C[C@@H]2c3cccc4[nH]c(Cl)c(c34)C[C@H]21
The melting point of the first is lower: 113 to 115 °C for the first, 250 °C for the second.

First: COC(=O)CC/C(C)=C/Cc1c(N=C=O)c2c(c(C)c1OC)COC2=O
Second: COc1cc2c(cc1OC)SCCC(C(=O)N1CCN(C(=O)c3cc(OC)c(OC)c(OC)c3)CC1)=C2
The melting point of the first is lower: 95 to 101 °C for the first, 113 °C for the second.

First: CC(C)(S)C1COC(=O)N1 (configuration not stated)
Second: CC(C)Cc1cc(S(=O)(=O)Cl)c(C(C)C)cc1Cl
The melting point of the first is higher: 124 to 126 °C for the first, 90 to 94 °C for the second.
